Experimental data published in US20090197279A1, “MICROTUBULE SYNTHESIS AS A BIOMARKER” (KINEMED, INC., priority 2005, published 2009).

Key:
[1] = system: hippocampal tubulin dimers and tau-associated, tau-nonassociated (MAP2/STOP) and cold-stable microtubules; assay: 2H label incorporation into hippocampal tubulin dimers and microtubule fractions after ICVC infusion (2H2O labeling, GC/MS); type: in vivo, mouse; settings: for label incorporation into new MAP2/STOP-MTs: vs water
Procedure: In (A) and (B), mice received ICVC infusions of 6 μl water alone or containing 0.48 nmol glutamate (80 μM in the infusate), or glutamate plus 0.66 pmol Rp-cAMP (110 nM in the infusate). Animals were then labeled with ^2H2O for 8 hours (A) or 24 hours (B). At sacrifice, the hippocampal post-nuclear supernatant was fractionated as show in FIG. 5A; a separate aliquot was used for isolation of cold stable (CS) MTs (FIG. 5D). Glutamate injection stimulated label incorporation into new MAP2/STOP-MTs at 8 and 24 hours, and CS MTs at 24 hours; both were blocked by Rp-cAMP. In order to correct the effects of pharmacologic intervention on MT dynamics for the confounding changes in tubulin synthesis, the numbers above each bar express ^2H label incorporation into MT as a percentage of ^2H labeling in the corresponding tubulin dimer fractions. (C) Dose dependence of glutamate effects. ^2H2O labeling was initiated at time zero, 6 μl ICVC infusions with the indicated concentrations of glutamate were performed at 24 hours, and labeling was continued until sacrifice at 48 hours (24 hours post glutamate infusion). Hippocampal MTs were fractionated into tau-associated, MAP2-associated, and non-associated (STOP-associated) MT fractions, as in FIG. 5A. In all experiments, bars represent % new tubulin (mean±SD, n=3).
Tubulin was purified using minor modifications of protocols described previously (Fanara, P., Oback, B., Ashman, K., Podtelejnikov, A., Brandt, R. Identification of MINUS, a small polypeptide that functions as a microtubule nucleation suppressor. EMBO J. 18, 565-577 (1999); Fanara, P. et al. In vivo measurement of microtubule dynamics using stable isotope labeling with heavy water. Effect of taxanes. J. Biol. Chem. 279, 49940-49947 (2004). Briefly, cultured neurons were gently scraped off culture plates, washed in phosphate-buffered saline (PBS), and homogenized in microtubule-stabilizing buffer. For purification ex vivo, mice were anesthetized with isoflurane and euthanized by cervical dislocation. Brains were rapidly removed and washed in microtubule-stabilizing buffer (MSB); hippocampi were dissected and gently homogenized in MSB. To separate cytosolic tubulin dimers from microtubule polymers, post-nuclear supernatants were centrifuged at 190,000×g at 20° C. for 35 min. The supernatant or non-microtubule fraction (containing the soluble dimeric tubulin) was separated from the pellet or microtubule fraction (containing polymeric tubulin), quick-frozen and stored at −20° C. Microtubule pellets were further fractionated by sequential immunoaffinity chromatography steps (FIG. 3). In order to isolate tau-associated microtubules, TAU5 antibody was covalently coupled to epoxy-activated Sepharose beads (Amersham Pharmacia Biotech) at a concentration of 0.25 mg/ml. Approximately 0.2 mg of the microtubule pellet was incubated with TAU-5 beads in 0.5 ml MSB for 1 hour at room temperature. Unbound material was removed, the beads were washed three times in 0.5 ml of MSB, and bound material was eluted in 0.5 ml MSB containing 1M NaCl. In some experiments, MAP2-associated microtubules were captured from the TAU5-unbound material by immunoaffinity chromatography on epoxy-activated Sepharose beads coupled to MAP2 antibody (0.5 mg antibody per ml beads) using the same protocol. The relative abundance of tubulin in each preparation (Tubulin dimers and TAU5-bound, MAP2-bound, and unbound microtubule fractions) was quantified by Western blot, and tubulin from these fractions was further purified by ion exchange and size exclusion chromatography, as previously described (Fanara, P. et al. In vivo measurement of microtubule dynamics using stable isotope labeling with heavy water. Effect of taxanes. J. Biol. Chem. 279, 49940-49947 (2004)). […]

[2] = system: total hippocampal proteins; assay: Fractional synthesis of total hippocampal proteins; type: in vivo, mouse; settings: glutamate ICVC vs mock-treated animals
Procedure: FIG. 7 depicts the effects of ICV glutamate on the relative amounts of MT subpopulations and on total protein synthesis in murine hippocampus. (A, B) Tubulin abundances are measured by Western blot analysis for α-tubulin at 8 hour (A) and 24 hours (B). Subpopulations were total extract (total), free tubulin dimers, tau-associated MTs, tau-nonassociated (MAP2/STOP) MTs and cold stable (CS) MTs. Mock and glutamate infused ICVC mice are shown (cf. FIGS. 6A and B). […] (C) Fractional synthesis of total hippocampal proteins. Glutamate increased protein synthesis versus mock-treated animals (*p<0.01); this effect was blocked by coadministration with 0.66 pmol of Rp-cAMP (**p<0.02).
This hypothesis had not previously been tested in the living brain, however. To test this hypothesis, we used the methods of the invention disclosed herein. Mice were infused with 6 μl water containing 0.48 nmol glutamate (80 μM in the infusate), or glutamate plus 0.66 pmol Rp-cAMP (110 nM in the infusate). Label incorporation into hippocampal tubulin dimers and into microtubule polymers was then quantified after administration of ^2H2O for 8 hours or 24 hours (FIGS. 7A and 7B). […] These findings further strengthen the previously reported correlation between hippocampus glutamate NMDA receptor-dependent learning (long-term potentiation) and protein synthesis (Kandel, E. R. The molecular biology of memory storage: a dialogue between genes and synapses. Science 294, 1030-1038 (2001)). By the same criterion, the glutamate-induced program of changes in hippocampal microtubule dynamics shown in FIGS. 6 and 7 also alters hippocampal total protein synthesis in vivo (data not show), further supporting the capacity of the invention disclosed herein to generate a biochemical record of basic neuroanatomic connectivity in the brain and thereby to reveal the dynamics of synaptogenesis in vivo.

[3] = dose-dependence experiment, 24 hours post stimulation

N[C@@H](CCC(=O)[O-])C(=O)[O-].[K+].[K+] [glutamate, potassium L-glutamate]
label incorporation into new MAP2/STOP-MTs ([1]; 0.48 nmol glutamate ICVC, 2H2O labeling 8 hours): stimulated | label incorporation into new MAP2/STOP-MTs ([1]; 0.48 nmol glutamate ICVC, 2H2O labeling 24 hours): stimulated | fractional synthesis of tubulin dimers ([1]; 0.48 nmol glutamate ICVC, 8 and 24 hours labeling, vs controls): somewhat enhanced | tau-nonassociated microtubules exchanged with free tubulin ([1]; 0.48 nmol glutamate ICVC, 8 hours): ca. 80% | labeling of cold-stable (axonal shaft) microtubules ([1]; 0.48 nmol glutamate ICVC, 8 hours, vs controls): indistinguishable from controls | tau-nonassociated microtubules exchanged with free tubulin ([1]; 0.48 nmol glutamate ICVC, 24 hours): ca. 80% | cold-stable microtubules equilibrated with free tubulin ([1]; 0.48 nmol glutamate ICVC, 24 hours, MT label as percentage of tubulin dimer label): about 40% | label incorporation into cold stable (CS) MTs ([1]; 0.48 nmol glutamate ICVC, 24 hours, vs controls): increased | label incorporation into cold stable (CS) MTs ([1]; 0.48 nmol glutamate ICVC, 24 hours, vs controls, listed as Glutamate): stimulated | exchange of tau-associated microtubules with tubulin dimers ([1]; 8 hours after stimulation with glutamate): highly exchanged | dynamics of tau-associated microtubules ([1]; 24 hours after stimulation with glutamate, vs controls): less dynamic than controls | fractional tubulin synthesis ([1]; dose-dependence experiment: 2H2O started 24 hours before varying amounts of glutamate, sacrifice 24 hours post infusion): at most slight effects | decreased label incorporation in tau-associated microtubules [1, 3]: glutamate-dose dependent | increased tubulin incorporation into dendritic and axonal shaft microtubules [1, 3]: glutamate-dose dependent | fractional synthesis of total hippocampal proteins [2]: alters | fractional synthesis of total hippocampal proteins ([2]; listed as Glutamate): increased
